The test system of the experiment is A. fischeri bacteria. Description: Bioluminescence inhibition of A. fischeri, modified Microtox Basic Solid Phase Test (synthetic sample with inert auxiliary substance). The conditions noted are these: for EC50: Aliivibrio fischeri. It counts as cell-based, Aliivibrio fischeri. An excerpt:
According to the invention, instead of a homogeneous solid sample with a relatively large mass (7 g in the Microtox® Basic Solid Phase Test), which is often unreachable for laboratory measurements of expensive or innovative materials, a so-called synthetic sample (as opposed to natural samples, i.e. soils and bottom sediments) of the same mass, containing the tested substance and an inert auxiliary substance (so called solid matrix) is being created. As a result, the synthetic sample simulates the soil contaminated with the tested substance. The synthetic sample prepared in such a way can be dispersed in the diluent and processed further according to the Microtox® Basic Solid Phase Test protocol. The Microtox® Basic Solid Phase Test protocol provides a series of steps covering, in turn: • suspending 7 g of the test sample in 35 ml of diluent in a 50 ml beaker, mixing for 10 min; • taking 2 mL of the suspension described above, while stirring it, into an appropriate cuvette; • performing a series of 1:2 dilutions of the test sample using the diluent; • reconstitution of freeze-dried Aliivibrio fischeri bacteria; • preparation and 15 min incubation of the reagent (10 µL of reconstituted bacteria and 0.5 mL of diluent); • bioluminescence measurement for time zero (bioluminescence before contact with the sample); • adding the reagent to each test sample and to the control cuvette; • incubation for 5 min, measurement of bioluminescence after 5 min incubation of bacteria with the sample; • incubation for another 10 min, measurement of bioluminescence after 15 min incubation of bacteria with the sample. The Microtox® protocol provides for the use of a 30-well incubator block maintaining a temperature of 15° C in the wells of the sample cuvettes and 5.5° C in the well of the bacterial suspension. According to the invention, a sample containing the substance to be test and an auxiliary substance is subjected to the procedure provided for in the Microtox® Basic Solid Phase Test. The pre-suspension is made by mixing the synthetic sample with a diluent (Microtox® Solid Phase Diluent: 3.5% aqueous NaCl solution) in appropriate proportions provided for in the measurement protocol, for example 7 g of the sample is mixed with 35 mL of diluent (weight/volume ratio of the sample to diluent is 1:5 g/mL), but after validation it is possible to use dispersions of any proportion (preferably from 1:4 g/mL to 1:6 g/mL) and scale (preferably samples weighing 3-10 g depending on capacity of the equipment used). In the case of hydrophobic chemicals, it is allowed to suspend them in a mixture of methanol with a diluent (e.g. 4% methanol solution) to increase their solubility. Then, the suspension is stirred in a tall beaker on a stirrer so that, as a result of mixing, the vortex always has the same, repeatable height, equal to half the height of the liquid level. A representative sample for further dilutions is drawn with an automatic pipette while the suspension is stirred, from half the depth of the suspension according to the Microtox® protocol. The further steps in the measurement (including but not limited to dilution, sampling, luminescence measurement, etc.) also follow the Microtox® Basic Solid Phase Test Procedure. […] A representative sample for further dilutions was taken from half the depth of the suspension without stirring interruption according to the Microtox® Basic Solid Phase Test protocol. […] The measurements were carried out in triplicate and the EC50 values were determined after 5 and 15 minutes of exposure. The obtained results with 95% confidence intervals, as well as the correlation coefficients are summarized below, in Table 2. Table 2. EC50 values [mg/L] obtained after 5 and 15 minutes exposure of A. fischeri bacteria to pure valsartan along with the corresponding confidence intervals.

These results are taken from EP4139472B1, “A METHOD FOR BIOTESTING OF A CONDENSED PHASE SUBSTANCES AND/OR MIXTURES ECOTOXICITY AND USE OF THE METHOD IN ECOTOXYCOLOGY” (Uniwersytet Jana Dlugosza w Czestochowie, priority 2020, dated 2021).

Values joined by “and” are separate entries in the source; they are usually repeats but may differ in a detail not shown here. Equal entries are not always repeated. Where two headings read alike, the source gives them in different places.

As a reminder, the EC50 is the concentration at which the effect is half-maximal. With `CCCCc1nc(Cl)c(CO)n1Cc1ccc(-c2ccccc2-c2nn[nH]n2)cc1` [losartan potassium], the “EC50 5 min” value (5 min exposure, 0.200 g losartan potassium + 5.600 g quartz sand in 35 mL diluent (1:[…]), single replicate, 95% confidence interval in brackets) is 594.25 (343.09-1028.98) mg/L and 667.23 (490.17-908.21) mg/L. In addition, the “EC50 15 min” value (15 min exposure, 0.200 g losartan potassium + 5.600 g quartz sand in 35 mL diluent (1:[…]), single replicate, 95% confidence interval in brackets) is 694.10 (541.64-889.82) mg/L and 629.33 (172.93-2289.90) mg/L. Moreover, the EC50 (5 min, 5 min exposure, 0.200 g losartan potassium + 5.600 g quartz sand in 35 mL diluent (1:[…]), single replicate, 95% confidence interval in brackets, read-out: EC50 5 min) is 490 µg/mL; the EC50 (5 min, 5 min exposure, pure losartan potassium + quartz sand, mean of three replicates, read-out: EC50 5 min, Mean) was found to be 584 ± 72.7 µg/mL; the EC50 (0.25 h, 15 min exposure, 0.200 g losartan potassium + 5.600 g quartz sand in 35 mL diluent (1:[…]), single replicate, 95% confidence interval in brackets, read-out: EC50 15 min) stood at 654 µg/mL; the EC50 (0.25 h, 15 min exposure, pure losartan potassium + quartz sand, mean of three replicates, read-out: EC50 15 min, Mean) amounted to 659 ± 26.7 µg/mL.
Turning to `CCCCC(=O)N(Cc1ccc(-c2ccccc2-c2nnn[nH]2)cc1)[C@H](C(=O)O)C(C)C` [valsartan], where the note is “5 min exposure, 0.160 g pure valsartan + 6.840 g quartz sand in 35 mL diluent, single replicate, 95% confidence interval in brackets”, the “EC50 5 min” value is 172.06 (102.02-290.17) mg/L and 88.31 (83.90-92.91) mg/L. For the same compound, the “EC50 15 min” value (15 min exposure, 0.160 g pure valsartan + 6.840 g quartz sand in 35 mL diluent, single replicate, 95% confidence interval in brackets) is 341.70 (338.33-358.97) mg/L and 242.80 (103.75-568.26) mg/L and 120.04 (99.20-145.28) mg/L. Also, the EC50 (5 min, 5 min exposure, 0.160 g pure valsartan + 6.840 g quartz sand in 35 mL diluent, single replicate, 95% confidence interval in brackets, read-out: EC50 5 min) turned out to be 169 µg/mL; the EC50 (5 min, 5 min exposure, pure valsartan + quartz sand, mean of three replicates, read-out: EC50 5 min, Mean) is 143 ± 38.8 µg/mL; the EC50 (0.25 h, 15 min exposure, pure valsartan + quartz sand, mean of three replicates, read-out: EC50 15 min, Mean) came to 235 ± 90.7 µg/mL.
